The results in this text go back to PMC4362760, “JAK2^V617F Drives Mcl-1 Expression and Sensitizes Hematologic Cell Lines to Dual Inhibition of JAK2 and Bcl-xL” (PLoS ONE, 2015).

The subject of one assay is Bim binding to Bcl-XL. As to the kind of experiment: Bim immunoblot of lysates and Bcl-XL immunoprecipitates. The assay is classed as cell-based. As for the experimental part:
For immunoprecipitation, lysates were prepared in CHAPS lysis buffer and 2 mg of cell lysate was mixed with at least 8 μg of immunoprecipitating antibody overnight at 4°C. The following day, 30 μl of a Protein A- or Protein G-agarose slurry was added for an additional 2 hr. Immunoprecipitates were washed three times in CHAPS lysis buffer, and heated in 1.5x loading buffer at 95°C for 5 min.
(§1) Caspase-3 activity was determined at each time point. Data are from duplicate samples and are representative of at least three independent experiments. (D-G) Cells were treated in combination as indicated, and cell viability was determined after 72 hr. Data are means of duplicate determinations, and are representative of at least three independent experiments. […] Drugs were added simultaneously, and cell viability was determined after 72 hr. The data were then analyzed using the drug-drug interaction model of Bliss additivity^16 to define dose combinations that were synergistic (values >15; red), antagonistic (values <-15; blue), or without effect (-15<values<15; gray). (I) Model of JAK2/Bcl-2 family inhibitor synergy. JAK2^V617F constitutively phosphorylates and activates STAT3/5, thus enforcing expression of the transcriptional target, Mcl-1. Mcl-1 collaborates with Bcl-XL to oppose apoptosis and support viability.
For orientation: Immunoblotting shows a protein as a band on a membrane.

In the next assay the test system is Caspase-3/7. The experiment in a line: Caspase-GLO 3/7 Assay, Caspase-3/7 activity divided by cell viability, fold of control. Format: cell-based. As to conditions: for caspase-3 activity, single agent: JAKi-I or ABT-263 alone.
The subject of a further assay is K562 cells. As to the kind of experiment: alamarBlue cell viability, JAKi-I/ABT-263 combination, 72 hr, K562. Format: cell-based. The following applies: K562, 72h, Jaki-1 0 uM. The procedure:
Transfection of siRNAs was performed using Lipofectamine RNAiMAX according to the manufacturer’s recommendations. […] Caspase-3 activity was determined using the Caspase-GLO 3/7 Assay (Promega) in parallel with the CellTiter-GLO viability assay (Promega). The data are expressed as Caspase-3/7 activity divided by cell viability.
as §1
Supplementary file pone.0114363.s006.xls: S6 Dataset Cells were treated in combination as indicated, and cell viability was determined using alamarBlue after 72 hr. Data are means of duplicate determinations, and are representative of at least three independent experiments. (XLS) Click here for additional data file.
In general terms: The colour change of resazurin is a common sign of viable cells or microbes.

Another assay addresses AMPK. As to the kind of experiment: TR-FRET Kinome AMPK. Format: binding, human. As to conditions: AMPK Invitrogen .1(Subs Conc). The text has this:
(§2) (XLS) Click here for additional data file.

The next assay addresses BRAF (Homo sapiens, UniProt P15056). As to the kind of experiment: TR-FRET Kinome BRAF. The assay is classed as binding. The following applies: BRAF Invitrogen .065(Subs Conc).
From the text: as §2
For orientation: TR-FRET usually uses a lanthanide donor and a delayed reading to cut background.

A further assay concerns the target CAMKK2 (Homo sapiens, UniProt Q96RR4). The experiment in a line: TR-FRET Kinome CAMKK2. The assay is classed as binding. As to conditions: CAMKK2 Invitrogen .03(Subs Conc).
From the text: as §2

The next assay concerns the target CDK11. The experiment in a line: TR-FRET Kinome CDK11. Format: binding, human. As to conditions: CDK11 Abbott .025(Subs Conc).
From the text: as §2

The target of another assay is DYRK1B (Homo sapiens, UniProt Q9Y463). As to the kind of experiment: TR-FRET Kinome DYRK1B. The following applies: DYRK1B Invitrogen .05(Subs Conc). Format: binding.
Chain of DYRK1B (Q9Y463 whole entry): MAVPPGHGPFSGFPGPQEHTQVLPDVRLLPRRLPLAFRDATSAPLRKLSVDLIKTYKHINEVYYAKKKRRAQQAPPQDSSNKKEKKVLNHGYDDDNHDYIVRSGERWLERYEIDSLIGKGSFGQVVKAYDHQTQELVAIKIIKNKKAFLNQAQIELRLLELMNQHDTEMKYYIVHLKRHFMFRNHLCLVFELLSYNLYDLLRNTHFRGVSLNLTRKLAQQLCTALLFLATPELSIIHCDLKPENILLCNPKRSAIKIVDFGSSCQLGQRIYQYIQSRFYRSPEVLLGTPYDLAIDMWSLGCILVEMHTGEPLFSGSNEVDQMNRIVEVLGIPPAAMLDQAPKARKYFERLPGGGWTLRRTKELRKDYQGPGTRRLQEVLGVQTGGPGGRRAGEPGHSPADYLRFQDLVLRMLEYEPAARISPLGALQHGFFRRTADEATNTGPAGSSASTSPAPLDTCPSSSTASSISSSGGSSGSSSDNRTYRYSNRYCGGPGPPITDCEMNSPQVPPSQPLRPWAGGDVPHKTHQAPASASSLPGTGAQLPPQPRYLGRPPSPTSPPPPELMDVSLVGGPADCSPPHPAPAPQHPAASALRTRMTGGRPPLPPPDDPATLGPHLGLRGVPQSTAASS
From the text: as §2

The target in a further assay is EGFR (Homo sapiens, UniProt P00533). As to the kind of experiment: TR-FRET Kinome EGFR. The assay is classed as binding. The following applies: EGFR Invitrogen .05(Subs Conc).
From the text: as §2

The target of another assay is IGF1R (Homo sapiens, UniProt P08069). As to the kind of experiment: TR-FRET Kinome IGF1R. The assay is classed as binding. As to conditions: IGF1R Invitrogen .05(Subs Conc).
Chain of IGF1R (P08069 31-1367): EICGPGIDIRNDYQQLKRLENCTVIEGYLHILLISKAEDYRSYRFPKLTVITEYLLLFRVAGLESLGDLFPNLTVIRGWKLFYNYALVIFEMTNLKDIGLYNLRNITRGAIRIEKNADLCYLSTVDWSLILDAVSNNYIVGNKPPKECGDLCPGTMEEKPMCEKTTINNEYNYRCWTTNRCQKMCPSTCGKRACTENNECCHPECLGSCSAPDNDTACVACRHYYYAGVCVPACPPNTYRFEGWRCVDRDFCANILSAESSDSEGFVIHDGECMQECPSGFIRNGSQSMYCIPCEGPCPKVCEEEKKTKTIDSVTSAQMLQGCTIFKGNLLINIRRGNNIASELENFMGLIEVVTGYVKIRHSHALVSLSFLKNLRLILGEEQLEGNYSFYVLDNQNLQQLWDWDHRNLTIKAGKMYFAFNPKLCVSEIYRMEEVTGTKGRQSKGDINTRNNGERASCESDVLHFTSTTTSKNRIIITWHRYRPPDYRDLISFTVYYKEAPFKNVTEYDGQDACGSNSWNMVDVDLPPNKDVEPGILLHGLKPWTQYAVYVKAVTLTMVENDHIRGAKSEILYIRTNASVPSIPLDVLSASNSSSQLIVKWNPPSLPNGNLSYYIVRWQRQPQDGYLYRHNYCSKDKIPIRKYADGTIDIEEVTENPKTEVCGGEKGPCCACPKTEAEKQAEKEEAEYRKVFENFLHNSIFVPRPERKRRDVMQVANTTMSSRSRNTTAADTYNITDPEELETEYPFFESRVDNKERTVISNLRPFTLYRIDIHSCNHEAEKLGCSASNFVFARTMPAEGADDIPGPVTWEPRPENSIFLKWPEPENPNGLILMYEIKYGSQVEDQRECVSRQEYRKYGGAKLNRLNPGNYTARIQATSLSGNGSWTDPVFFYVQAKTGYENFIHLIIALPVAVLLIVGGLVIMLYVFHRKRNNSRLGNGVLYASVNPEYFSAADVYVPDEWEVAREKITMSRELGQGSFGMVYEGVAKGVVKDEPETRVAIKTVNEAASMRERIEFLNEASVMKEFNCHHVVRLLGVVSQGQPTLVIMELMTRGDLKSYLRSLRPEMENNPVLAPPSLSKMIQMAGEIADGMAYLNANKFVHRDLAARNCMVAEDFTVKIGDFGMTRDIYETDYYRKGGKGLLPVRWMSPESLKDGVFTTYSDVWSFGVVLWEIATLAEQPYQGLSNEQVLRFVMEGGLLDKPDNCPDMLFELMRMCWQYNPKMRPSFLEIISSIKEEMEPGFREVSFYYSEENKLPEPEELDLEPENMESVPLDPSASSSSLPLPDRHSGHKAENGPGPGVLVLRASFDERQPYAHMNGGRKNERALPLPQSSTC
From the text: as §2

The target of a further assay is MAP2K3 (Homo sapiens, UniProt P46734). The experiment in a line: TR-FRET Kinome MAP2K3. Format: binding. As to conditions: MAP2K3 Invitrogen .075(Subs Conc).
From the text: as §2

A further assay addresses PKCzeta (Homo sapiens, UniProt Q05513). As to the kind of experiment: TR-FRET Kinome PKCzeta. Format: binding. As to conditions: PKCzeta Millipore IVGN Tracer .05(Subs Conc).
From the text: as §2

For a further assay, the target named is Pim2 (Homo sapiens, UniProt Q9P1W9). As to the kind of experiment: TR-FRET Kinome Pim2. The following applies: Pim2 Millipore .025(Subs Conc). The assay is classed as binding.
Chain of Pim2 (Q9P1W9 whole entry): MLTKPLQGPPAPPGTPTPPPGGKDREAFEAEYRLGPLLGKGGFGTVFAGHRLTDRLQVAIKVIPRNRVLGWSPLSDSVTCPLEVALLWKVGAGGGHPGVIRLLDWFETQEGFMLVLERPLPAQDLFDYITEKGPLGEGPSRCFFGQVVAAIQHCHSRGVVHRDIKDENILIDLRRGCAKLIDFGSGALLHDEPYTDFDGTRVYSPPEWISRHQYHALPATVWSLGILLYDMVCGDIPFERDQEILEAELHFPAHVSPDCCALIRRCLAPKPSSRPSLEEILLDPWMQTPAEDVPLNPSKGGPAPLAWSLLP
From the text: as §2

The target of another assay is Rock2 (Homo sapiens, UniProt O75116). The experiment in a line: TR-FRET Kinome Rock2. As to conditions: Rock2 Invitrogen .012(Subs Conc). Format: binding.
Chain of Rock2 (O75116 whole entry): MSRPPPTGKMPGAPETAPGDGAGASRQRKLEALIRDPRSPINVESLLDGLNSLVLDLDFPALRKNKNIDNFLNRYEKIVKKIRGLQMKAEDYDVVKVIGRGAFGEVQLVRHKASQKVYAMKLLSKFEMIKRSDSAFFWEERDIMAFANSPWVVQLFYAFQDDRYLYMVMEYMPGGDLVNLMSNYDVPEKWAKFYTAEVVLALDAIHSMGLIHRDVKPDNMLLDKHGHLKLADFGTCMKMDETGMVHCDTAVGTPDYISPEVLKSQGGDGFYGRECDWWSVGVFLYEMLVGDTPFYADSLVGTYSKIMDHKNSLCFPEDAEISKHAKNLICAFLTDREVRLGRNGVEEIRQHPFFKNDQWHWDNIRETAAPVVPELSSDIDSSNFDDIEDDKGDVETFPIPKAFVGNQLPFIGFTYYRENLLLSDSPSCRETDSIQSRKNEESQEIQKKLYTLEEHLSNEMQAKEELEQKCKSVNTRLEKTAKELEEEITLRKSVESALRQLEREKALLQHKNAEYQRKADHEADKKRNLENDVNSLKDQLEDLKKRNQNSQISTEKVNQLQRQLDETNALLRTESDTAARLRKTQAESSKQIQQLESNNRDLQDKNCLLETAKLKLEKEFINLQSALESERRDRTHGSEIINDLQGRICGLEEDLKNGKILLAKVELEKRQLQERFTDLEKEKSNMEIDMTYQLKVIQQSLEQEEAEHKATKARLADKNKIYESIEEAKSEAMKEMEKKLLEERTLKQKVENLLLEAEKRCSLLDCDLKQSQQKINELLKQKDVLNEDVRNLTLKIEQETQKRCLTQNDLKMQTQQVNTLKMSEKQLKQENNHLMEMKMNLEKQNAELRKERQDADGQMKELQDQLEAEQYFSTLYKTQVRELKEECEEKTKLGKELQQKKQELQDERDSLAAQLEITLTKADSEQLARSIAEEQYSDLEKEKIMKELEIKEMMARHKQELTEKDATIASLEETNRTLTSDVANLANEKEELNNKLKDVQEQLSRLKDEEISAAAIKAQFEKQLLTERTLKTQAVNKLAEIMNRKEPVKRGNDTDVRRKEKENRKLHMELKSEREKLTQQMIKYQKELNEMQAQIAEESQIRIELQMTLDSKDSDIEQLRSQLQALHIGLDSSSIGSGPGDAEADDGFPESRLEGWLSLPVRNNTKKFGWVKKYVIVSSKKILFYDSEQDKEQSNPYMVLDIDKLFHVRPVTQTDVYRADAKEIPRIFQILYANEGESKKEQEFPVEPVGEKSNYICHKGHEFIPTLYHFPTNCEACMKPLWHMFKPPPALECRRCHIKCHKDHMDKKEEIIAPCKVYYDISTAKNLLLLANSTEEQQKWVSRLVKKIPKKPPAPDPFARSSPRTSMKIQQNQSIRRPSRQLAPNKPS
From the text: as §2

The target in a further assay is cdk2 (Homo sapiens, UniProt P24941). The experiment in a line: TR-FRET Kinome cdk2. As to conditions: cdk2 Invitrogen .05(Subs Conc). The assay is classed as binding.
From the text: as §2

The subject of another assay is Bcl-XL. The experiment in a line: Bcl-XL protein level by immunoblotting. The following applies: 24-hr time course. Format: cell-based. The procedure:
SET-2, HEL, MV4;11, and K562 cells were obtained from ATCC and cultured as recommended. UKE-1 cells were purchased from Walter Fiedler (University of Hamburg). Cell lysates were either prepared using CHAPS lysis buffer (10 mM HEPES, pH 7.4, 150 mM NaCl, 1% CHAPS) or cell extraction buffer containing 1% Triton X-100, 0.1% SDS, and 0.5% deoxycholate. All buffers were supplemented with protease and phosphatase inhibitor cocktails prior to use.
Fig 1 Regulation of Mcl-1 and Bcl-XL by JAK2 ^V617F. […] Tyrosine phoshorylation of STAT3 and STAT5 was determined by immunoblotting. […] Constitutive tyrosine phosphorylation of STAT3 and STAT5 was determined by immunoblotting. […] Data represent means +/- standard deviation for two independent determinations each performed in triplicate. […] (G) Quantification of the data shown in (F). Data are expressed as the ratio of intensity of Mcl-1/β-actin for each time point. […] Data are means of duplicate samples and are representative of two independent experiments.

For assay [1], the system named is STAT3 binding to the Mcl-1 promoter. The experiment in a line: ChIP of STAT3 binding to the Mcl-1 promoter (EZ-ChIP). Format: cell-based. As to conditions: 1 μM, 6 hr; cell lines expressing JAK2 V617F, not in lines without this lesion.

The Ki is the equilibrium dissociation constant of an inhibitor or competing ligand from its target. Read a high Ki as weaker binding.

Chain of CAMKK2 (Q96RR4 whole entry): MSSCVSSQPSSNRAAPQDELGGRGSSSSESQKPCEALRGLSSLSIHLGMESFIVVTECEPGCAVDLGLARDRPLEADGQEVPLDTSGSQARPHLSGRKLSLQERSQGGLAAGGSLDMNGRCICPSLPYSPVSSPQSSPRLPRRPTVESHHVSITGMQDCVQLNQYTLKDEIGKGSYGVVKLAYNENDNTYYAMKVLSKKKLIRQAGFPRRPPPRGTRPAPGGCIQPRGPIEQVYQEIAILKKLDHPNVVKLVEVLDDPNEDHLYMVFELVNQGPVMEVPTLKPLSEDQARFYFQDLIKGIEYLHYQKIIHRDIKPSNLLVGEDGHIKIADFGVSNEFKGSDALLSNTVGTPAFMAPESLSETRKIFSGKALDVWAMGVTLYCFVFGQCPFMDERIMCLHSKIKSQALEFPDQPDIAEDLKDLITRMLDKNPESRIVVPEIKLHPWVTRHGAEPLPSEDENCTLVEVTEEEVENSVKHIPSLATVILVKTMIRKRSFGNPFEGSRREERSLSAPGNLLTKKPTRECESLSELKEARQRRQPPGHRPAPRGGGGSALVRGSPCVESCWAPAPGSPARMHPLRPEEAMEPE
Chain of PKCzeta (Q05513 whole entry): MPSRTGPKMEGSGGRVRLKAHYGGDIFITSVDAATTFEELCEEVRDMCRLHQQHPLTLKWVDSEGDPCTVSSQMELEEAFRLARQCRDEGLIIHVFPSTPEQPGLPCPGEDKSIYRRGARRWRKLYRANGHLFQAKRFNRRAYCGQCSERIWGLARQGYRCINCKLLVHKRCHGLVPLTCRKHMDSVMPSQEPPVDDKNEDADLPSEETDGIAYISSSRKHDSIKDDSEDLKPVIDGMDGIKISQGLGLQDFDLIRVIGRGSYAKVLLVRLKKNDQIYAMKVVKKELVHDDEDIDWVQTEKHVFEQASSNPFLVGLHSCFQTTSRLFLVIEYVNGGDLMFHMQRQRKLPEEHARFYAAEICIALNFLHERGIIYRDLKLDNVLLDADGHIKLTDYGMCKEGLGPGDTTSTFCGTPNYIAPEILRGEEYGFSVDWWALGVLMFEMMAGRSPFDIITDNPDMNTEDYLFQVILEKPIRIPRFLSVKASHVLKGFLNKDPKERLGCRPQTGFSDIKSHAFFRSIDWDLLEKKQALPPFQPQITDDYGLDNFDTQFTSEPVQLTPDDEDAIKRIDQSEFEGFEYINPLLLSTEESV

For the molecule `CC1(C)CCC(c2ccc(Cl)cc2)=C(CN2CCN(c3ccc(C(=O)NS(=O)(=O)c4ccc(N[C@H](CCN5CCOCC5)CSc5ccccc5)c(S(=O)(=O)C(F)(F)F)c4)cc3)CC2)C1` [ABT-263], the “Bim binding to Bcl-XL” value in the assay on Bim binding to Bcl-XL (0.15 μM ABT-263, 3 hr, irrespective of JAK2 mutational status) is “displaced”. Moreover, the “caspase-3 activity, combination” value in the assay on Caspase-3/7 (JAKi-I 6 hr pretreatment followed by ABT-263, within four hours, cell lines harboring JAK2 V617F) was “synergistic induction”. In addition, the “caspase-3 activity, single agent” value in the assay with Caspase-3/7 is on record as “neither JAKi-I nor ABT-263 alone induced caspase-3 activity”. The “Viability (% Inhibiton)” value in the assay on K562 cells (ABT-263 0.003 uM) turned out to be 0%; in the assay with K562 cells (ABT-263 0.01 uM) it was 0%; in the assay with K562 cells (ABT-263 0.03 uM), 0%; in the assay on K562 cells (ABT-263 0.1 uM), 0%; in the assay with K562 cells (ABT-263 0.3 uM), 10%; in the assay with K562 cells (ABT-263 1 uM), 19%.

For `CC(C)(C)c1nc2c3cc[nH]c(=O)c3c3cc(F)ccc3c2[nH]1` [JAKi-I, JAK inhibitor I], the Ki at AMPK was 148 nM; on BRAF, more than 3370 nM; at CAMKK2 it was more than 3100 nM; on CDK11, more than 3240 nM; at DYRK1B, more than 2650 nM; on EGFR, more than 1670 nM. Moreover, the Ki on IGF1R was more than 2650 nM; on MAP2K3, more than 3100 nM; on PKCzeta, more than 5240 nM; at Pim2 it was 2110 nM; on Rock2 it was more than 3330 nM; on cdk2, more than 3240 nM. The Bcl-XL protein level result in the assay on Bcl-XL is listed as “sharply declined”. For the same molecule, the “STAT3 binding to the MCL1 promoter” value in assay [1] was “disrupted”. In addition, the “abundance of total Bim protein” value with Bim binding to Bcl-XL (1 μM JAKi-I, 6 hr, HEL and K562 lysates) is “not altered”. Further, the “Bim in Bcl-XL immunoprecipitates” value in the assay on Bim binding to Bcl-XL (1 μM JAKi-I, 6 hr, in the presence of the JAK2 V617F mutation) is reported as “enriched”. Further, the “caspase-3 activity, single agent” value with Caspase-3/7 is recorded as “neither JAKi-I nor ABT-263 alone induced caspase-3 activity”.
